These results are taken from US9890176B2, “Mannose derivatives for treating bacterial infections” (Vertex Pharmaceuticals Incorporated, priority 2013, dated 2018).

In the test the test system is bacterial strain LF82 binding to the glycoprotein BSA-(Mannose)3. Description: Bacterial Binding Assay (BBA). It is filed as cell-based, Escherichia coli. The conditions noted are these: read-out: Bacterial Binding Assay IC50. From the text: The purpose of the Bacterial Binding Assay (BBA) is to determine the inhibition activity of selective FimH antagonists on the bacterial strain LF82 binding to the glycoprotein BSA-(Mannose)3.
Below is a list of the Materials used to run the BBA are described below. • 1. LB broth: Supplier: Gibco, #10855 • 2. D-PBS: Supplier: Wisent, #311-425-CL • 3. LB agar plates • 4. 96-well black plate (high binding): Supplier: Costar, #3925 • 5. TopSeal™-A adhesive sealing films; Supplier PerkinElmer, #6005185 • 6. Carbonate-bicarbonate buffer pH 9.6 tablets, Supplier: Medicago, #09-8922-24 • 7. Water, Supplier: Gibco, #15230-162 • 8. Bovine serum albumin (BSA): Supplier: Sigma, #A-7888 • 9. (Man)-3-BSA (α1-3, α1-6 Mannotriose-BSA, 1 mg), V-Labs, #NGP1336, lot#HGDX37-169-1 • 10. Tween 20: Supplier: Sigma, #P9416 • 11. Bright-Glo Luciferase Assay System: Supplier: Promega, #E2610 • 12. LF82/Luciferase strain: Invasive ability of an Escherichia coli strain isolated from the ileal mucosa of a patient with Crohn's disease. Boudeau J, Glasser A L, Masseret E, Joly B, Darfeuille-Michaud A, Infect Immun. 1999, 67(9), 4499-509
Solutions and buffers used to run the BBA are described below. • 1. 0.04M carbonate-bicarbonate buffer (coating buffer) • 2. […] 1 mg of (Man)-3-BSA in 25 mL of water. • 3. 4000 ng/mL BSA • 4. 40 ng/mL BSA • 5. 1 μg/mL BSA-(Man)3: 150 μL of 40 ng/mL BSA-(Man)3+5.85 mL of 40 ng/mL BSA • 6. 0.5 μg/mL BSA-(Man)3 in 0.02M carbonate-bicarbonate buffer. • 7. 20 ng/mL BSA in 0.02M carbonate-bicarbonate buffer • 8. Blocking buffer (2% BSA/DPBS): 1 g of BSA in 50 mL D-PBS • 9. 2× binding buffer (0.2% BSA/D-PBS): 5 mL of blocking buffer+45 mL D-PBS. • 10. Washing buffer (D-PBS/0.01% Tween 20): 10 μL of Tween 20 in 100 mL D-PBS. • 11. 1× Bright-Glo Luciferase substrate:Dilute 1:1 the Bright-Glo Luciferase Assay System with D-PBS The experimental protocol to run the BBA is described below.
Overnight culture of LF82/Luciferase strain: Into two Falcon 50 mL tubes, add 20 mL of LB+20 μL of 50 mg/mL Kanamycin and inoculate with a loop from glycerol stock of the LF82/Luciferase strain. Incubate overnight at 37° C. with no shaking.
Glycoprotein coating of 96-well plates: Add 100 μL/well of 0.5-2 μg/mL BSA-(Man)3. 20 μg/mL BSA is used as the control background. Seal plate using an adhesive sealing film and incubate overnight at room temperature. Wash the 96-well plate three times with 150 μL/well of D-PBS, add 170 μL/well of blocking solution and incubate 45 min (minimum) at room temperature.
Preparation of bacterial suspension: Mix the two cultures tubes (40 mL) and perform a 1:10 dilution in LB (900 μl LB+100 μl culture. Measure optical density (OD) of the bacterial cultures. OD1 ˜5×10^8 cells/mL. Centrifuge LF82 culture for 20 min at 3500 rpm at room temperature. Re-suspend bacterial pellet in D-PBS and centrifuge again for 20 min at 3500 rpm. Re-suspend bacterial pellet in D-PBS to obtain a bacterial concentration of 2×10^9 bacteria/mL. Dilute 1/10 in D-PBS to obtain a final bacterial concentration of 2×10^8 bacteria/mL (=107 bacteria/50 μL). Perform 1/10 serial dilutions in LB of each bacterial suspension, plate 10 μL of dilutions on LB agar plates (final dilutions of 10^−7) and incubate overnight at 37° C. and count CFUs to determine the actual bacteria density in the assay.
Bacterial binding assay: Add 147 μL 2× binding buffer to compound plate (containing 3 μL of compound). After blocking step is performed (at least 45 min), wash plates three times with 200 μL/well of D-PBS. With a 100 μL multichannel manual pipettor, add 50 μL/well of compound diluted in 2× binding buffer. With a 100 μL multichannel manual pipettor, add 50 μL/well of bacterial suspension. Agitate at slow speed for 1 min and incubate 40-75 min at room temperature. Wash 5 times with 150 μL/well of washing buffer and then once with D-PBS. Add 100 μL/well of 1× Bright-Glo Luciferase substrate. […]
With `Cc1cc(-c2cccc(C(=O)O)c2)ccc1O[C@H]1O[C@H](CO)[C@@H](O)[C@H](O)[C@]1(C)O` [Compound 21], the IC50 (commonly the midpoint of a concentration-inhibition curve) was 112 ± 37 nM.

Consider `Cc1cc(-c2cccc(C(=O)NCCOCCOCCN)c2)ccc1O[C@H]1O[C@H](CO)[C@@H](O)[C@H](O)[C@]1(C)O` [Compound 22], for which the IC50 is 15 ± 4 nM.

Consider `CNC(=O)c1cccc(-c2ccc(O[C@H]3O[C@H](CO)[C@@H](O)[C@H](O)[C@@]3(O)COCc3ccccc3)c(C)c2)c1` [Compound 23], for which the IC50 was 115 ± 25 nM.

For the compound `CNC(=O)c1cccc(-c2ccc(O[C@H]3O[C@H](CO)[C@@H](O)[C@H](O)[C@@]3(O)CO)c(C)c2)c1` [Compound 24], the IC50 was found to be 19 ± 3 nM.

Turning to `CNC(=O)c1cccc(-c2ccc(O[C@H]3O[C@H]([C@@H](O)C(C)C)[C@@H](O)[C@H](O)[C@@H]3O)c(C)c2)c1` [Compound 30], the 50% inhibitory concentration (IC50) was more than 10000 nM.

With `CC[C@H](O)[C@H]1O[C@H](Oc2ccc(-c3cccc(C(=O)NC)c3)cc2C)[C@@H](O)[C@@H](O)[C@@H]1O` [Compound 31], the IC50 was more than 10000 nM.

In the case of `O=[N+]([O-])c1cccc(-c2ccc3c(c2)CC[C@]2(O3)O[C@H](CO)[C@@H](O)[C@H](O)[C@@H]2O)c1` [Compound 34], the IC50 amounted to 79 ± 31 nM.

Turning to `C[C@@]1(O)[C@@H](OCc2ccccc2)O[C@H](CO)[C@@H](O)[C@@H]1O` [Compound 37], the concentration for half-maximal inhibition (IC50) was more than 10000 nM.

Consider `CNC(=O)c1cccc(-c2ccc(O[C@H]3O[C@H](CO)[C@@H](O)[C@H](O)[C@@]3(O)CN=[N+]=[N-])c(C)c2)c1` [Compound 38], for which the IC50 is 105 ± 5 nM.

For `CNC(=O)c1cccc(-c2ccc(O[C@H]3O[C@H](CO)[C@@H](O)[C@H](O)[C@]3(C)O)cc2F)c1` [Compound 39], the IC50 is 265 ± 135 nM.

As for `CNC(=O)c1cccc(-c2ccc(O[C@H]3O[C@H](CO)[C@@H](O)[C@H](O)[C@]3(C)O)cc2Cl)c1` [Compound 40], the IC50 is 220 ± 110 nM.

For the compound `CNC(=O)c1cccc(-c2ccc(O[C@H]3O[C@H](CO)[C@@H](O)[C@H](O)[C@]3(C)O)cc2OC)c1` [Compound 41], the IC50 was 220 ± 110 nM.

As to `CNC(=O)c1cccc(-c2ccc(O[C@H]3O[C@H](CO)[C@@H](O)[C@H](O)[C@]3(C)O)cc2C)c1` [Compound 42], the IC50 was determined as 375 ± 255 nM.

As to `CNC(=O)c1cccc(-c2ccc(O[C@H]3O[C@H](CO)[C@@H](O)[C@H](O)[C@]3(C)O)cc2C(F)(F)F)c1` [Compound 43], the IC50 was found to be 785 ± 474 nM.

As to `CNC(=O)c1cccc(-c2ccc(Cl)c(O[C@H]3O[C@H](CO)[C@@H](O)[C@H](O)[C@]3(C)O)c2)c1` [Compound 44], the IC50 worked out at 43 ± 12 nM.

On to `CNC(=O)c1ccc(-c2ccc(Cl)c(O[C@H]3O[C@H](CO)[C@@H](O)[C@H](O)[C@]3(C)O)c2)cc1` [Compound 45], for which the IC50 was determined as 116 ± 34 nM.

As to `CNC(=O)c1cccc(-c2cccc(O[C@H]3O[C@H](CO)[C@@H](O)[C@H](O)[C@]3(C)O)c2Cl)c1` [Compound 46], the IC50 was 126 ± 38 nM.

Consider `CNC(=O)c1ccc(-c2cccc(O[C@H]3O[C@H](CO)[C@@H](O)[C@H](O)[C@]3(C)O)c2Cl)cc1` [Compound 47], for which the IC50 came to 55 ± 29 nM.

With `CNC(=O)c1cccc(-c2ccc(O[C@H]3O[C@H](CO)[C@@H](O)[C@H](O)[C@@]3(O)CN)c(C)c2)c1` [Compound 48], the concentration for half-maximal inhibition (IC50) is 605 ± 215 nM.

Consider `CNC(=O)c1cccc(-c2ccc(O[C@H]3O[C@H](CO)[C@@H](O)[C@H](O)[C@@]3(O)COCCOCc3ccccc3)c(C)c2)c1` [Compound 49], for which the IC50 turned out to be 280 ± 20 nM.

For the compound `CNC(=O)c1cccc(-c2ccc(O[C@H]3O[C@H](CO)[C@@H](O)[C@H](O)[C@@]3(O)COCCO)c(C)c2)c1` [Compound 50], the IC50 amounted to 830 ± 170 nM.

Turning to `CNC(=O)c1cccc(-c2ccc(O[C@H]3O[C@H](CO)[C@@H](O)[C@H](O)[C@@]3(O)Cn3cc(CO)nn3)c(C)c2)c1` [Compound 51], the 50% inhibitory concentration (IC50) worked out at 7150 ± 50 nM.

On to `CNC(=O)c1cccc(-c2ccc(O[C@H]3O[C@H](CO)[C@@H](O)[C@H](O)[C@@]3(O)CNC(C)=O)c(C)c2)c1` [Compound 52], for which the IC50 turned out to be 48 ± 10 nM.

As for `COCCNC(=O)c1cccc(-c2ccc(O[C@H]3O[C@H](CO)[C@@H](O)[C@H](O)[C@]3(C)O)c(Cl)c2)c1` [Compound 53], the IC50 was determined as 24 ± 6 nM.

With `C[C@@]1(O)[C@@H](Oc2ccc(-c3ccc(C(=O)NC4CC4)c(Cl)c3)cc2Cl)O[C@H](CO)[C@@H](O)[C@@H]1O` [Compound 54], the IC50 amounted to 42 ± 7 nM.

For the compound `CNC(=O)c1cc(-c2ccc(O[C@H]3O[C@H](CO)[C@@H](O)[C@H](O)[C@]3(C)O)c(Cl)c2)ccc1F` [Compound 55], the IC50 is 20 ± 0.5 nM.

Consider `CNC(=O)c1cc(F)cc(-c2ccc(O[C@H]3O[C@H](CO)[C@@H](O)[C@H](O)[C@]3(C)O)c(Cl)c2)c1` [Compound 56], for which the IC50 is 24 ± 0.5 nM.

On to `COC(=O)c1cccc(-c2ccc(O[C@H]3O[C@H](CO)[C@@H](O)[C@H](O)[C@]3(C)O)c(C)c2)c1` [Compound 57], for which the concentration for half-maximal inhibition (IC50) is 17 ± 4 nM.

Take `Cc1cc(-c2cccc(C(=O)NCCN3CCN(C)CC3)c2)ccc1O[C@H]1O[C@H](CO)[C@@H](O)[C@H](O)[C@]1(C)O` [Compound 58]: the IC50 turned out to be 13 ± 1 nM.

Consider `Cc1cc(-c2cccc(C(=O)N[C@@H](CO)[C@H](C)O)c2)ccc1O[C@H]1O[C@H](CO)[C@@H](O)[C@H](O)[C@]1(C)O` [Compound 59], for which the IC50 came to 20 ± 4 nM.

On to `Cc1cc(-c2cccc(C(=O)NC(CO)(CO)CO)c2)ccc1O[C@H]1O[C@H](CO)[C@@H](O)[C@H](O)[C@]1(C)O` [Compound 60], for which the IC50 worked out at 16 ± 0.5 nM.

Regarding `Cc1cc(-c2cccc(C(=O)NC(C)(CO)CO)c2)ccc1O[C@H]1O[C@H](CO)[C@@H](O)[C@H](O)[C@]1(C)O` [Compound 61], the IC50 was determined as 22 ± 6 nM.

As for `Cc1cc(-c2cccc(C(=O)NC(CO)CO)c2)ccc1O[C@H]1O[C@H](CO)[C@@H](O)[C@H](O)[C@]1(C)O` [Compound 62], the IC50 stood at 9 ± 3 nM.

Consider `Cc1cc(-c2cccc(C(=O)NCCN3CCOCC3)c2)ccc1O[C@H]1O[C@H](CO)[C@@H](O)[C@H](O)[C@]1(C)O` [Compound 63], for which the IC50 was 12 ± 3 nM.

Consider `Cc1cc(-c2cccc(C(=O)NC[C@H]3OC(O)[C@H](O)[C@@H](O)[C@@H]3O)c2)ccc1O[C@H]1O[C@H](CO)[C@@H](O)[C@H](O)[C@]1(C)O` (stereo partly drawn) [Compound 64], for which the IC50 is 20 ± 0.5 nM.

For the compound `Cc1cc(-c2cccc(C(=O)N[C@H]3[C@H](O)[C@@H](CO)OC(O)[C@@H]3O)c2)ccc1O[C@H]1O[C@H](CO)[C@@H](O)[C@H](O)[C@]1(C)O` (stereo partly drawn) [Compound 65], the IC50 amounted to 20 ± 8 nM.

`Cc1cc(-c2cccc(C(=O)NCC3CCN(C(=O)OC(C)(C)C)CC3)c2)ccc1O[C@H]1O[C@H](CO)[C@@H](O)[C@H](O)[C@]1(C)O` [Compound 66]: the IC50 turned out to be 11 ± 3 nM.

With `Cc1cc(-c2cccc(C(=O)NCCN(C)C)c2)ccc1O[C@H]1O[C@H](CO)[C@@H](O)[C@H](O)[C@]1(C)O` [Compound 67], the IC50 was 15 ± 6 nM.

For `Cc1cc(-c2cccc(C(=O)N3CCN(C)CC3)c2)ccc1O[C@H]1O[C@H](CO)[C@@H](O)[C@H](O)[C@]1(C)O` [Compound 68], the concentration for half-maximal inhibition (IC50) worked out at 26 ± 4 nM.
